Reference: patent publication US20220323402A1, “TREATMENT, AMELIORATION OR PREVENTION OF A VIRAL INFECTION” (priority 2019, published 2022)

Assays:
ZIKV = assay: Effect of inhibitors of IFN signaling on ZIKV replication in HepG2 cells, plaque assay; type: cell-based, Zika virus; details: HepG2 pre-treated 24 h, plaque assay 24 h p.i.; FIG. 22
Method: HepG2 cells were pre-treated with DMSO (vehicle), JAK I Inhibitor, TSA, or NaF for 24 h and infected with ZIKV. Data represent the mean+s.e.m. from three independent experiments. P values were determined by a one-way ANOVA followed by Tukey's post-hoc test.
I3S (Indoxyl 3-sulfate, Sigma, used at 50-500 μM as indicated for each experiment), CH223191 (Tocris, used at 2-30 μM), Sodium fluoride (Sigma, 1 mM), Trichostatin A (Sigma, 100 nM), JAK I Inhibitor (Santa Cruz Biotechnology, 1 μM). HP163 was the generous gift of Hercules Pharmaceuticals, BV, (Galileiweg 8, 2333 BD, The Netherlands). CB7993113 has been described previously^80. HP163, is a monoalkylated amide of CB7993113 optimally formulated in a 5% tween, 45% PEG, 50% saline mixture. […] The structural formulas of the compounds used in this study are reproduced below.

[1] = test system: ZIKV (Puerto Rico strain, PRVABC59); assay: Flow cytometry quantification of HepG2 cells positive for Flavivirus antigen after ZIKV infection; type: cell-based, Zika virus; details: HepG2, ZIKV moi=1, 48 h; FIG. 7C
Method: FIGS. 7A-7K: AHR signaling boosts ZIKV replication in vitro. Flow cytometry quantification of HepG2 cells positive for Flavivirus antigen. HepG2 cells were pre-treated with different concentrations of I3S, CH223191 or DMSO (vehicle) and infected with ZIKV (moi=1) for 48 h. Plots shown are representative of one experiment. Bar graphs (FIG. 7C) represent the mean+s.e.m. of Flavivirus antigen positive cells from at least three independent experiments. P values were determined by a one-way ANOVA followed by Tukey's post-hoc test.
Stock solutions of I3S and CH223191 were prepared in DMSO, aliquoted and stored according to manufacturer's instructions. For CH223191, cells were pre-treated for 90 minutes and then used for further studies. For I3S, cells were pre-treated overnight.
Cells were fixed and permeabilized using Cytofix/Cytoperm (BD Biosciences). Secondary antibody for flow cytometry was phycoerythrin (PE) goat anti-mouse IgG (BD Biosciences) at a concentration of 1:200. Cells were analyzed on a Guava easyCyte flow cytometer and data was processed using FlowJo software.

Cell cultures = assay: Cell viability by MTT assay; type: cell-based; details: at the concentrations tested; FIGS. 9A-9B
Method: FIGS. 9A and 9B: Toxicity of I3S and CH223191. Cell viability after treatment for 24 h with different concentrations of I3S (FIG. 9A) and CH223191 (FIG. 9B) evaluated by MTT assay.
Cell cultures grown in 96-well plates were exposed for 48 h to serial two-fold compound dilutions, three wells for each concentration and viability was measured with 3-(4,5-dimethylthiazol-2-yl)-2,5-diphenyl tetrazolium bromide (MTT, Sigma-Aldrich).

AHR [2] = assay: AHR modulation in NPCs, qPCR of AHR, CYP1A1, IDO1 and TDO2; type: cell-based, human; details: at the concentrations tested; NPCs 24 h; FIGS. 10A-10D
Method: FIGS. 10A-10D: AHR modulation in NPCs. NPCs were treated with I3S or a combination of I3S and CH223191. 24 h after treatment, NPCs were harvested for RNA extraction followed by qPCR analysis of AHR (FIG. 10A), CYP1A1 (FIG. 10B), IDO1 (FIG. 100) and TDO2 (FIG. 10D). Data represent the mean+s.e.m. from three independent experiments. P values were determined by Student's t-test.
RNA was extracted using the RNAeasy kit (Qiagen). cDNA was synthesized using the High-Capacity cDNA Reverse Transcription kit (Applied Biosystems) and qPCR was performed using TaqMan Fast Advanced Master Mix (Applied Biosystems). Gene expression was normalized to GAPDH. Primers and probes (Applied Biosystems) were: GAPDH Hs02786624_g1, IFNB1 Hs01077958_s1, AHR Hs00169233_m1, PML Hs00971694_m1, CYP1A1 Hs01054796_g1, IFITM1 Hs00705137_s1, CYP1B1 Hs02382916_s1, CXCL10 Hs00171042_m1, IDO1 Hs00984148_m1, IDO2 Hs01589373_m1, IFITM Hs00705137_s1, TDO Hs00194611_m1. Primers and probes for the specific detection of Zika virus RNA were utilized as previously described^81, 82. For viral load determination in vivo, brains and spleens from pups were macerated on trizol (Invitrogen) for RNA extraction. RNA pellets were resuspended in RNase-free water and quantified by spectrophotometry (NanoDrop—Thermo Scientific) and stored at −80° C. […] Quantification was compared with threshold cycle (Ct) value with a ZIKV plasmid standard curve.

AHR [3] = assay: AHR modulation in A549 cells, qPCR of AHR and CYP1A1; type: cell-based; details: 24 h; FIG. 61
Method: FIGS. 61A and 61B: AHR modulation by small molecules in A549 cells. A549 cells were treated with the indicated concentrations of I3S (FIG. 61A) or CH223191 (FIG. 61B) for 24 h. Then, cells were harvested for RNA extraction and qPCR analysis of AHR and CYP1A1.

[4] = test system: DENV-1, DENV-2, DENV-3, DENV-4; assay: DENV plaque assay of supernatants of A549 cells; type: cell-based, dengue virus; details: A549 pretreated 24 h, moi=0.1; FIG. 62
Method: FIG. 62: AHR activation boosts DENV replication. A549 cells were pretreated with the indicated concentrations of I3S for 24 h and infected with DENV-2 (moi=0.1). 48 h p.i. supernatants were harvested for plaque assay.
FIGS. 63A-63D: AHR modulation affects DENV replication. Infectious virus particles in the supernatants of A549 cells pre-treated with CH2213191 and infected with DENV-1 (FIG. 63A), DENV-2 (FIG. 63B), DENV-3 (FIG. 63C) or DENV-4 (FIG. 63D) (moi=0.1). At 24 h p.i. supernatants were harvested for plaque assay.

Molecule: [F-].[Na+] [NaF, Sodium fluoride]
- ZIKV replication in presence of drugs that block IFN-I signaling (ZIKV): increase

Molecule: O=S(=O)(O)Oc1c[nH]c2ccccc12 [I3S, Indoxyl 3-sulfate]
- percentage of HepG2 cells expressing viral antigen [1]: increased
- cytotoxic effects (Cell cultures): no cytotoxic effects were detected
- AHR inhibition / activation (AHR [2]): activation
- AHR activation in A549 cells (AHR [3]): activated
- yield of the four DENV serotypes [4]: increased

Molecule: JAK inhibitor I
- ZIKV replication in presence of drugs that block IFN-I signaling (ZIKV): increase

Molecule: CC(/C=C/C(=O)NO)=C\[C@@H](C)C(=O)c1ccc(N(C)C)cc1 [trichostatin A]
- ZIKV replication in presence of drugs that block IFN-I signaling (ZIKV): increase
